# Assay results taken from ChEMBL document CHEMBL5058646 (2022).
# What was measured:
# [1] = biological target: Zinc finger and BTB domain-containing protein 7A (Homo sapiens) (UniProt O95365); conditions: SUD4, Compound concentration 1.0 uM
# [2] = biological target: 5-hydroxytryptamine receptor 1A (Homo sapiens) (UniProt P08908); conditions: Compound concentration 10.0 uM
# [3] = biological target: MAP kinase-activated protein kinase 2 (Homo sapiens) (UniProt P49137); assay: MAPKAPK2 SGC Tm panel (DSF); conditions: Compound concentration 20.0 uM
# MAP kinase-activated protein kinase 2 (Homo sapiens), sequence (P49137 whole entry, looked up): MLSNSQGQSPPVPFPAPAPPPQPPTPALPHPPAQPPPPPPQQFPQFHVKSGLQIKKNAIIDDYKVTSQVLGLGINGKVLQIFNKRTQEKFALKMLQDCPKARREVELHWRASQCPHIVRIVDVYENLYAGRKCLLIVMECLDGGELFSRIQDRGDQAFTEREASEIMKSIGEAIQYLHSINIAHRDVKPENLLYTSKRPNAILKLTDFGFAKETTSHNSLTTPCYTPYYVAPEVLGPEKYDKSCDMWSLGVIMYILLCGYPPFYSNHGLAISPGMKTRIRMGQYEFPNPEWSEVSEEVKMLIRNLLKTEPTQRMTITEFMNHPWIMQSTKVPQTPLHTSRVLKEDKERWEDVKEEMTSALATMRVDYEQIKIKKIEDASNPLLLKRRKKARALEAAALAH
# [4] = biological target: Ephrin type-B receptor 1 (Homo sapiens) (UniProt P54762); assay: EPHB1 SGC Tm panel (DSF); conditions: Compound concentration 20.0 uM
# [5] = biological target: Mitogen-activated protein kinase kinase kinase 5 (Homo sapiens) (UniProt Q99683); assay: MAP3K5 SGC Tm panel (DSF); conditions: Compound concentration 20.0 uM
# [6] = biological target: T1, Zinc finger and BTB domain-containing protein 9 (Homo sapiens) (UniProt Q96C00); conditions: SUD4, Compound concentration 1.0 uM
# T1 sequence (whole entry): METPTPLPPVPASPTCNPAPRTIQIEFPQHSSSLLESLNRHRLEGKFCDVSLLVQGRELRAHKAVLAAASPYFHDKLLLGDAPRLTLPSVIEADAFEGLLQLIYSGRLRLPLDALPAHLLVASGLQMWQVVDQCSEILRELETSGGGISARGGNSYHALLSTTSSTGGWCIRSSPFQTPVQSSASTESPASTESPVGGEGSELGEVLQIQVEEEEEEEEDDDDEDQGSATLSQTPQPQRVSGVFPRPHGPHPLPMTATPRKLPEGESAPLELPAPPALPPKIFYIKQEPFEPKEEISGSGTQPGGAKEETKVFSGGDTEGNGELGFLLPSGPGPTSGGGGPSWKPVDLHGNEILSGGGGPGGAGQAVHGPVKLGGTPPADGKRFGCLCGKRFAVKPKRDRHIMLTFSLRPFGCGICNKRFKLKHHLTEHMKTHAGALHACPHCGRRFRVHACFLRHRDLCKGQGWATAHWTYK
# [7] = biological target: 5-hydroxytryptamine receptor 6 (Homo sapiens) (UniProt P50406); conditions: Compound concentration 10.0 uM
# 5-hydroxytryptamine receptor 6 (Homo sapiens), sequence (P50406 whole entry): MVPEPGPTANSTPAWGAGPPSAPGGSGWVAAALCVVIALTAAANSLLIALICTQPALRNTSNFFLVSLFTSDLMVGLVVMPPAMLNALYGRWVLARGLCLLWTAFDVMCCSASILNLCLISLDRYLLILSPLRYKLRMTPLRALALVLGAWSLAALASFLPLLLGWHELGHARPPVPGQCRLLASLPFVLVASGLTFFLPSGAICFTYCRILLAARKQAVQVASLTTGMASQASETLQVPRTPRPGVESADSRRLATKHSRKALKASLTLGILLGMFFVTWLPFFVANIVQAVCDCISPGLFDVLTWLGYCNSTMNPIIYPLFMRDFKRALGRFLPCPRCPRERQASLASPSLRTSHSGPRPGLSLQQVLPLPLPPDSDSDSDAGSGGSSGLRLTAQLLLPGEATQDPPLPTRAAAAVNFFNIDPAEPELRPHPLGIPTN
# [8] = biological target: Casein kinase II subunit alpha (Homo sapiens) (UniProt P68400); assay: CSNK2A1 SGC Tm panel (DSF); conditions: Compound concentration 20.0 uM
# [9] = biological target: 5-hydroxytryptamine receptor 2B (Homo sapiens) (UniProt P41595); conditions: Compound concentration 10.0 uM
# [10] = biological target: Aurora kinase A (Homo sapiens) (UniProt O14965); assay: STK6 SGC Tm panel (DSF); conditions: Compound concentration 20.0 uM
# [11] = biological target: Zinc finger and BTB domain-containing protein 43 (Homo sapiens) (UniProt O43298); conditions: SUD4, Compound concentration 1.0 uM
# [12] = biological target: Serine/threonine-protein kinase 10 (Homo sapiens) (UniProt O94804); assay: STK10 SGC Tm panel (DSF); conditions: Compound concentration 20.0 uM
# [13] = biological target: T2, Zinc finger and BTB domain-containing protein 24 (Homo sapiens) (UniProt O43167); conditions: SUD4, Compound concentration 1.0 uM
# T2 sequence (whole entry): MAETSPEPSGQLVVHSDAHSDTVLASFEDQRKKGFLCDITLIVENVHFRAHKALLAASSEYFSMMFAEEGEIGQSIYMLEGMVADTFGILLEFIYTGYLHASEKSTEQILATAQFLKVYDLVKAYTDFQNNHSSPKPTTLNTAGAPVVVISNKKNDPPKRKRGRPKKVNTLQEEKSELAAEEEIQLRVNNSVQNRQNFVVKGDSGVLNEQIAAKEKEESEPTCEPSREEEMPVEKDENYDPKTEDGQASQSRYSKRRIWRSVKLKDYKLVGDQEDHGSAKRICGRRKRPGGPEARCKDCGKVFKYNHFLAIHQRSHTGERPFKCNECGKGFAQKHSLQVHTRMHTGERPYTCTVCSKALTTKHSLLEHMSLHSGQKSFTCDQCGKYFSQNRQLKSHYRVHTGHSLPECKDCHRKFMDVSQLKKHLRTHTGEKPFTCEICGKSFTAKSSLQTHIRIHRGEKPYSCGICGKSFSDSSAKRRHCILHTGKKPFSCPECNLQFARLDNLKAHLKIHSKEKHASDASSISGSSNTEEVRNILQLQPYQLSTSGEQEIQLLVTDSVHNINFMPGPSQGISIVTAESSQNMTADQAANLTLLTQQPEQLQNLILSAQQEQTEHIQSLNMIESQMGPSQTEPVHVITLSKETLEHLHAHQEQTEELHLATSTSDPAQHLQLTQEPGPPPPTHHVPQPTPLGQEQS
# [14] = biological target: Death-associated protein kinase 3 (Homo sapiens) (UniProt O43293); assay: DAPK3 SGC Tm panel (DSF); conditions: Compound concentration 20.0 uM
# Death-associated protein kinase 3 (Homo sapiens), sequence (O43293 whole entry, looked up, the tested form may be a part): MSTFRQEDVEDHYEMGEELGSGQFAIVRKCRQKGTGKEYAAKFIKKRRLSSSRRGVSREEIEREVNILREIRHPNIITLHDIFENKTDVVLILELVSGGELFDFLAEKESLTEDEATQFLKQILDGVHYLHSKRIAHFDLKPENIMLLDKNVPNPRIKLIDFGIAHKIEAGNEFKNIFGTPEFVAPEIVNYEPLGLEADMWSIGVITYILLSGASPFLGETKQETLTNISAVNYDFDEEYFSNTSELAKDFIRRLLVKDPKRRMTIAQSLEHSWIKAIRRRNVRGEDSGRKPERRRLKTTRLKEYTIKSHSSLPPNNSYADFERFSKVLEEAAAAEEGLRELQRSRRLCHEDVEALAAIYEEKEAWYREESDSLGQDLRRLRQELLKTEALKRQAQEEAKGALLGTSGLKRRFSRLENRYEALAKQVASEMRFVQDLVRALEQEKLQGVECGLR
# [15] = biological target: Zinc finger and BTB domain-containing protein 17 (Homo sapiens) (UniProt Q13105); conditions: SUD4, Compound concentration 1.0 uM
# [16] = biological target: Zinc finger and BTB domain-containing protein 7A (Homo sapiens) (UniProt O95365); conditions: SUD4, Compound concentration 1.0 uM; remark: listed apart in the source
# [17] = biological target: Dual specificity tyrosine-phosphorylation-regulated kinase 2 (Homo sapiens) (UniProt Q92630); assay: DYRK2 SGC Tm panel (DSF); conditions: Compound concentration 20.0 uM
# Dual specificity tyrosine-phosphorylation-regulated kinase 2 (Homo sapiens), sequence (Q92630 whole entry): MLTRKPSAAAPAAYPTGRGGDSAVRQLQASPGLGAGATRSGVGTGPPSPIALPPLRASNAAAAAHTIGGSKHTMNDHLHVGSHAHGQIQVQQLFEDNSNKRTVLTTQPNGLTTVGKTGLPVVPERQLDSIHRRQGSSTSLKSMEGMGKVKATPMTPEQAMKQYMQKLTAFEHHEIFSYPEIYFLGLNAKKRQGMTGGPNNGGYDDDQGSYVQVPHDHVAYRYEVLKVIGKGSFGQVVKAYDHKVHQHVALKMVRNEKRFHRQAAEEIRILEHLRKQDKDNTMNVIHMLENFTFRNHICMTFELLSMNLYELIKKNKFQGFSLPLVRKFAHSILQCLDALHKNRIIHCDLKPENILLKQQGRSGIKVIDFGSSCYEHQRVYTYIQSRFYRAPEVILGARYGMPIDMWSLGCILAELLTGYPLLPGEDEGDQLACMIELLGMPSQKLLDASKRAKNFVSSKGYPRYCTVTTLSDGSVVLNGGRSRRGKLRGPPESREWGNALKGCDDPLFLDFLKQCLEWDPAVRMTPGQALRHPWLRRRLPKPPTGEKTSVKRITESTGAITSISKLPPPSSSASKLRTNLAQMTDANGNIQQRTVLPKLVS
# [18] = biological target: G protein-coupled receptor kinase 5 (Homo sapiens) (UniProt P34947); assay: GPRK5 SGC Tm panel (DSF); conditions: Compound concentration 20.0 uM
# G protein-coupled receptor kinase 5 (Homo sapiens), sequence (P34947 whole entry, looked up): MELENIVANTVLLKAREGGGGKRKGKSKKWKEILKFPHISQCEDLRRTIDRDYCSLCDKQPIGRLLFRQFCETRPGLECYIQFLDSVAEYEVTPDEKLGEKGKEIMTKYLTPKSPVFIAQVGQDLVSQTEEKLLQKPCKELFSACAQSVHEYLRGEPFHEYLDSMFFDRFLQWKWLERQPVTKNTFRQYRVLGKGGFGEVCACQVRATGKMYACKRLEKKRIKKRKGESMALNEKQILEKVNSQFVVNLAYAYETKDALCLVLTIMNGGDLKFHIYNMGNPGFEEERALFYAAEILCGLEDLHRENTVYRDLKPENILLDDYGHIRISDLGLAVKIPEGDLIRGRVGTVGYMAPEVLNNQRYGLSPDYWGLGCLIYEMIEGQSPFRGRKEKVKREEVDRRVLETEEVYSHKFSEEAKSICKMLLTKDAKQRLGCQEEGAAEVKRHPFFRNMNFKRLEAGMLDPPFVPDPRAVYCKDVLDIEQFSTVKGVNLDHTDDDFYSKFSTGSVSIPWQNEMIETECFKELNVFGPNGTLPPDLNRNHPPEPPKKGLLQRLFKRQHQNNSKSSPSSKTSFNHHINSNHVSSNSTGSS
# [19] = GPCRScan assay: inhibition of GABA/PBR; design: species or system Rattus norvegicus; radioligand conc. used [nm] 0.3 – 2.0, parental cells brain tissue
# [20] = biological target: Mitogen-activated protein kinase 10 (Homo sapiens) (UniProt P53779); assay: MAPK10 SGC Tm panel (DSF); conditions: Compound concentration 20.0 uM
# Mitogen-activated protein kinase 10 (Homo sapiens), sequence (P53779 whole entry): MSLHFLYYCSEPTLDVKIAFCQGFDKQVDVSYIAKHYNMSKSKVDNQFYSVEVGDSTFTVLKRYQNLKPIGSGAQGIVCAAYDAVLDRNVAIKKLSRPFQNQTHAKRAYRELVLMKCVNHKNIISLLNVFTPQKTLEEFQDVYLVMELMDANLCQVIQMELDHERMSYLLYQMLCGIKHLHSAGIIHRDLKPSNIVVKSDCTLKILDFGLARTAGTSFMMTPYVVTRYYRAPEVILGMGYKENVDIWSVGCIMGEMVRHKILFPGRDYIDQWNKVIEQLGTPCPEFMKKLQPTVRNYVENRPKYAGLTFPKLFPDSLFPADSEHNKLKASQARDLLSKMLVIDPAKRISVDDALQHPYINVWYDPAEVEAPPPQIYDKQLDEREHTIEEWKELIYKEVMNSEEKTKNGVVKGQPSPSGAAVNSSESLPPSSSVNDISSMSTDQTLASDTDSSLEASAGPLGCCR
# [21] = biological target: Bone morphogenetic protein receptor type-2 (Homo sapiens) (UniProt Q13873); assay: BMPR2 SGC Tm panel (DSF); conditions: Compound concentration 20.0 uM
# Bone morphogenetic protein receptor type-2 (Homo sapiens), sequence (Q13873 whole entry): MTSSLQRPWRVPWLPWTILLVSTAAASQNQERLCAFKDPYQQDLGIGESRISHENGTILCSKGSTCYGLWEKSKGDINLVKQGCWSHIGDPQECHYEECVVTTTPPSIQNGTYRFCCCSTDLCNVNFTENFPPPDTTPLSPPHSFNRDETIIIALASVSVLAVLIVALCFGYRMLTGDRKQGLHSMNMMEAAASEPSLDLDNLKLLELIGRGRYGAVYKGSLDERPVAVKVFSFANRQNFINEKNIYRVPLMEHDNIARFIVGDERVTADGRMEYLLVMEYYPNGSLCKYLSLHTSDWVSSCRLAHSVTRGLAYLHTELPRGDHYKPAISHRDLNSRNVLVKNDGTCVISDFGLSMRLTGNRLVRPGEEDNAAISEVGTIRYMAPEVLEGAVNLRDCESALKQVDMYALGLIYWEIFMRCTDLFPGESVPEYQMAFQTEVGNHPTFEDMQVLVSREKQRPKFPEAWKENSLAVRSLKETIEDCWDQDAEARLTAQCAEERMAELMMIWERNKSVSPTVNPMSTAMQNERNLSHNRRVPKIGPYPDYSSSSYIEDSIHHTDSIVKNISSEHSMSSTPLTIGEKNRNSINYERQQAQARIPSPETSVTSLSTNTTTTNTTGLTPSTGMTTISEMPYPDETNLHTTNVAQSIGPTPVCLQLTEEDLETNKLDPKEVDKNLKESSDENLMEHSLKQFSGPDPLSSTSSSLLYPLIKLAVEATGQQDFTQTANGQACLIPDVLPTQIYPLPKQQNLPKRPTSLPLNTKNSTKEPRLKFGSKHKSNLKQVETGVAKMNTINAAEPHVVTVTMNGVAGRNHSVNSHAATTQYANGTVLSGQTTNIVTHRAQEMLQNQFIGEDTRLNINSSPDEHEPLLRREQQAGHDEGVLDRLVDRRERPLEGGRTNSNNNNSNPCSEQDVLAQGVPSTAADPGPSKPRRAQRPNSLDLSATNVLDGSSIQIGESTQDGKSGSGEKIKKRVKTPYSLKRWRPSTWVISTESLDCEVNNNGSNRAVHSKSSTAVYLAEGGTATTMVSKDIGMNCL
# Zinc finger and BTB domain-containing protein 7A (Homo sapiens), sequence (O95365 whole entry, the tested form may be a part): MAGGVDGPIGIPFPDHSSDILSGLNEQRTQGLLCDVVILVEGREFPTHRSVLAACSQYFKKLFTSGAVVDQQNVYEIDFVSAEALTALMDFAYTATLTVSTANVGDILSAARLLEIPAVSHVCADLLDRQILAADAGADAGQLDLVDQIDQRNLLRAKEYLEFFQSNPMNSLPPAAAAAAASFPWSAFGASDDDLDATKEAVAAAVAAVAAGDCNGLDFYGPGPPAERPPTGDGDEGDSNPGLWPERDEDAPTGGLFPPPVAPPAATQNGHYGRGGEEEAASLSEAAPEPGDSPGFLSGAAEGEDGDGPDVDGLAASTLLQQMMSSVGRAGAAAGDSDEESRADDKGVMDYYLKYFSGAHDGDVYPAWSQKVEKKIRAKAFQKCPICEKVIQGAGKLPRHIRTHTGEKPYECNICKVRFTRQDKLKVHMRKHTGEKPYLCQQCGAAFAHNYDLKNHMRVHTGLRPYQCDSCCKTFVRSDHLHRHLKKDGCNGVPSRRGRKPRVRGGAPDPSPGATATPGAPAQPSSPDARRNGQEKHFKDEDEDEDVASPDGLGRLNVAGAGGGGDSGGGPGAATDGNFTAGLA
# 5-hydroxytryptamine receptor 1A (Homo sapiens), sequence (P08908 whole entry): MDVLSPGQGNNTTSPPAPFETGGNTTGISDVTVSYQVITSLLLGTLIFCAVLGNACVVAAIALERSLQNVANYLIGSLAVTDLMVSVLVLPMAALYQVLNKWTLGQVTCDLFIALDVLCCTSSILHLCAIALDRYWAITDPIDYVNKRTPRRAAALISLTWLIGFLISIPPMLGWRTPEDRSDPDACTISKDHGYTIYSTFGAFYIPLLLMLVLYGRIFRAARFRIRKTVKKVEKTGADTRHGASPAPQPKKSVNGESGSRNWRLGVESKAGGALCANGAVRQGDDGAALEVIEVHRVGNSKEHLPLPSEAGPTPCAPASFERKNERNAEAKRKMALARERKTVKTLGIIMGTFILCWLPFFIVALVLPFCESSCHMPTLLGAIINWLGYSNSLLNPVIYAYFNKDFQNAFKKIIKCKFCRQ
smiles,measurement,setting,value
C[C@@H]1CN(c2ncc(Cl)c(Nc3ccc4c(c3)n(CCC(C)(C)O)c(=O)n4C)n2)C[C@H](C)C1(F)F,LogFC,[1],0.0336
same,inhibition,[2],5.99%
same,Tm,[3],46 °C
same,Tm,[4],57 °C
same,Tm,[5],40 °C
same,LogFC,[6],0.0873
same,inhibition,[7],3.94%
same,Tm,[8],44 °C
same,inhibition,[9],34.6%
same,Tm,[10],45 °C
same,LogFC,[11],0.0194
same,Tm,[12],42 °C
same,LogFC,[13],0.00149
same,Tm,[14],39 °C
same,LogFC,[15],-0.0472
same,LogFC,[16],-0.0678
same,Tm,[17],46 °C
same,Tm,[18],40 °C
same,Ki,[19],1110 nM
same,pKi,[19],6.01
same,Tm,[20],48 °C
same,Tm,[21],51 °C
